Measurements: patent US10670605B2, “Cysteine reactive probes and uses thereof” (The Scripps Research Institute, priority 2015, dated 2020)
Each block holds one compound with its values, some of them ahead of it.

How the values were obtained:
[1] = biological target: T1, VCPIP1 C219 (Q96JH7) (Homo sapiens, UniProt Q96JH7); assay: Competitive isoTOP-ABPP, cell lysates; format: binding; settings: for R value (DMSO/fragment): 500 μM; for isoTOP-ABPP reactivity ratio, Q96JH7_C219 / isoTOP-ABPP reactivity profile ratio, Q96JH7_C219: 500 μm, in-vitro_ramos
T1 sequence (Q96JH7 1-1222): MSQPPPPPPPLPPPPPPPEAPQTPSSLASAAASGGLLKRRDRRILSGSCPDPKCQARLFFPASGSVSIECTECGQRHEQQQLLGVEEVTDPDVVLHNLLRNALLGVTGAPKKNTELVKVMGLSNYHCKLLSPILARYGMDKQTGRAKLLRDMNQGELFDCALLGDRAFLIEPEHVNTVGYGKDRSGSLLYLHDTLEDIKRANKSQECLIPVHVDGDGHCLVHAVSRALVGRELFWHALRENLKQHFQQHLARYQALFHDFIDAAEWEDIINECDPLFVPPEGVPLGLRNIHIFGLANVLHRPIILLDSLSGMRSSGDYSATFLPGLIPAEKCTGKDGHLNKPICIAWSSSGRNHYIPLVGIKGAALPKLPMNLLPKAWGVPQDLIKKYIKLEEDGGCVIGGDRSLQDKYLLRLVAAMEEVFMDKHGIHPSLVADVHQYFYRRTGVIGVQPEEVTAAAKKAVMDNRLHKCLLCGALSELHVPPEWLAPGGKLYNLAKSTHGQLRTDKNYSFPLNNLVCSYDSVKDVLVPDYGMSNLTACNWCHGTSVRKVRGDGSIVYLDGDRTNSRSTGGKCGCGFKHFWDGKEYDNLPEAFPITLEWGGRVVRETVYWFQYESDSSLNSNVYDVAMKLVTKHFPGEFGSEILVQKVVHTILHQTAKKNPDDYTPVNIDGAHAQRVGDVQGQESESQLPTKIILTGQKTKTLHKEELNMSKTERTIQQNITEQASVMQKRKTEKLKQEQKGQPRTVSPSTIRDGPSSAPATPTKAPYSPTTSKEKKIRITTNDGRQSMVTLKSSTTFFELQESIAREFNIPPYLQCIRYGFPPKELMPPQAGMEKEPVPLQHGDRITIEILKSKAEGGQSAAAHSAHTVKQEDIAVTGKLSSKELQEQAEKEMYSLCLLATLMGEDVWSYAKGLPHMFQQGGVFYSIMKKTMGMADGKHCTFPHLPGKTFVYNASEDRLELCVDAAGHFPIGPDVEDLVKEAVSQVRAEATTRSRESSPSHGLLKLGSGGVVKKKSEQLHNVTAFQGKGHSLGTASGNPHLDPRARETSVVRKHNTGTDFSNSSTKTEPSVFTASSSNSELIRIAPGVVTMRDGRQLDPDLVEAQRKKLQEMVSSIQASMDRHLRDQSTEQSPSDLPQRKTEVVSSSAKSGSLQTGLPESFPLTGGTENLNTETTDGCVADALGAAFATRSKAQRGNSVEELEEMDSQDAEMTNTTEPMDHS

[2] = biological target: T2, DDX59 C453 (Q5T1V6) (Homo sapiens, UniProt Q5T1V6); assay: Competitive isoTOP-ABPP, cell lysates; format: binding; settings: for R value (DMSO/fragment) / isoTOP-ABPP ratio, Q5T1V6_C453: 500 μM; for isoTOP-ABPP reactivity profile ratio, Q5T1V6_C453: 500 μm
T2 sequence (Q5T1V6 1-619): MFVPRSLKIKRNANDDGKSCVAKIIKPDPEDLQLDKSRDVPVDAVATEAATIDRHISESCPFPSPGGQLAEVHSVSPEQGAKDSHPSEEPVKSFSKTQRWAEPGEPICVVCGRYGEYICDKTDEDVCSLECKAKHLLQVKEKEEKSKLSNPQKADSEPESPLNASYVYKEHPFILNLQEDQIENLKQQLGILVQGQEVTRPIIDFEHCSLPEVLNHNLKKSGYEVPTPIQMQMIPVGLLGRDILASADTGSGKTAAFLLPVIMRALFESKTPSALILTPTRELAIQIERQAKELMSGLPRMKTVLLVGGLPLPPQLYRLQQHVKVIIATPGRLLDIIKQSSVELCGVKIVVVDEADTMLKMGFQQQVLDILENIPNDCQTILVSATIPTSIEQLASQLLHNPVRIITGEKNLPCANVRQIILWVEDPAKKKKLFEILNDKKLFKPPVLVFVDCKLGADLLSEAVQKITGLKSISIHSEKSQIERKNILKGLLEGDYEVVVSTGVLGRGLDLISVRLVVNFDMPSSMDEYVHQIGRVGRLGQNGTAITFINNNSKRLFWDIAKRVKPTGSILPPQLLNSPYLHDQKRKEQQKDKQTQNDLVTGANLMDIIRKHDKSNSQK

R value (DMSO/fragment) ([1]; invitro, ramos): 1.1
R value (DMSO/fragment) ([2]; in vitro, MDA-MB-231): 20.0
R value (DMSO/fragment) ([2]; invitro, ramos): 20.0
SMILES: COc1ccc2c(c1)CCCN2C(=O)CCl [compound 2]

R value (DMSO/fragment) ([1]; in vitro, MDA-MB-231): 20.0
R value (DMSO/fragment) ([1]; invitro, ramos): 15.1
R value (DMSO/fragment) ([2]; in vitro, MDA-MB-231): 20.0
SMILES: O=C(CCl)Nc1cc(C(F)(F)F)cc(C(F)(F)F)c1 [compound 3]

isoTOP-ABPP ratio, Q5T1V6_C453 ([2]; invitro, 231): 20.0
SMILES: Cn1cc(S(=O)(=O)N2CCOCC2)cc1C(=O)NC(=O)CCl [compound 11]

isoTOP-ABPP ratio, Q5T1V6_C453 ([2]; invitro, ramos): 1.4
SMILES: O=C(CCl)NCCc1c[nH]c2ccccc12 [compound 13]

isoTOP-ABPP ratio (reactivity profile), Q96JH7_C219 ([1]; 500 μm in-vitro ramos): 1.3
SMILES: C=CC(=O)N(Cc1cccnc1)c1ccc(Oc2ccccc2)c(C(F)(F)F)c1 [compound 15]

SMILES: O=C(CCl)N1CCC(C(O)(c2ccccc2)c2ccccc2)CC1 [compound 20]
isoTOP-ABPP ratio (reactivity profile), Q96JH7_C219 ([1]; 500 μm in-vitro ramos): 1.2

isoTOP-ABPP ratio (reactivity profile), Q96JH7_C219 ([1]; 500 μm in-vitro ramos): 1.2
isoTOP-ABPP ratio (reactivity profile), Q5T1V6_C453 ([2]; 500 μm in-vitro ramos): 1.7
SMILES: CC(Br)C(=O)Nc1cc(C(F)(F)F)cc(C(F)(F)F)c1 (centres unmarked) [compound 24]

isoTOP-ABPP ratio (reactivity profile), Q5T1V6_C453 ([2]; 500 μm in-vitro ramos_231): 0.9
SMILES: CC(Cl)C(=O)Nc1cc(C(F)(F)F)cc(C(F)(F)F)c1 (centres unmarked) [compound 25]

isoTOP-ABPP ratio (reactivity profile), Q96JH7_C219 ([1]; 500 μm in-vitro ramos_231): 1.7
isoTOP-ABPP ratio (reactivity profile), Q5T1V6_C453 ([2]; 500 μm in-vitro ramos_231): 1.0
SMILES: CC(C)CCOCCNC(=O)CCl [compound 27]

isoTOP-ABPP reactivity ratio, Q96JH7_C219 [1]: 1.0
SMILES: C=CC(=O)N(Cc1cccnc1)c1cc(C(F)(F)F)cc(C(F)(F)F)c1 [compound 31]

isoTOP-ABPP reactivity ratio, Q96JH7_C219 [1]: 1.8
SMILES: C=CC(=O)Nc1cc(F)c(N2CCN(C(=O)OC(C)(C)C)CC2)c(F)c1 [compound 38]

isoTOP-ABPP reactivity ratio, Q96JH7_C219 [1]: 1.9
SMILES: C=CC(=O)Nc1cc(C)c(Br)cc1C [compound 40]

isoTOP-ABPP reactivity profile ratio, Q5T1V6_C453 ([2]; in-vitro_ramos): 1.0
SMILES: N#CC(=Cc1ccc(-c2ccccc2Cl)o1)C(N)=O [compound 42]

isoTOP-ABPP reactivity profile ratio, Q5T1V6_C453 ([2]; in-vitro_ramos_231): 20.0
SMILES: COc1cc(NC(=O)CCl)cc(OC)c1 [compound 43]

isoTOP-ABPP reactivity profile ratio, Q96JH7_C219 [1]: 2.3
isoTOP-ABPP reactivity profile ratio, Q5T1V6_C453 ([2]; in-vitro_ramos): 1.8
SMILES: O=C(CCl)Nc1cccc2ncccc12 [compound 51]

isoTOP-ABPP reactivity profile ratio, Q96JH7_C219 [1]: 1.6
SMILES: O=C(CCl)Nc1ccc(-c2ccccc2)cc1 [compound 52]
